The results in this text go back to ChEMBL document CHEMBL3797087, “Synthesis of novel triazole/isoxazole functionalized 7-(trifluoromethyl)pyrido[2,3-d]pyrimidine derivatives as promising anticancer and antibacterial agents” (2016).

Holding throughout (format): functional
Test [1] concerns MDA-MB-231. The experiment in a line: Anticancer activity against human MDA-MB-231 cells after 48 hrs by SRB assay. The following applies: MDA-MB-231, 48 h.
Test [2] can be described thus: Anticancer activity against human PANC1 cells after 48 hrs by SRB assay. The following applies: PANC-1, 48 h.
For test [3], the system named is A549. The experiment in a line: Anticancer activity against human A549 cells after 48 hrs by SRB assay. The following applies: A549, 48 h. On the technique in general: In SRB staining, fixed cells bind dye roughly in proportion to their protein.
The test system of test [4] is HeLa. As to the kind of experiment: Anticancer activity against human HeLa cells after 48 hrs by SRB assay.
Test [5] relates to Bacillus licheniformis. As to the kind of experiment: Antibacterial activity against Bacillus licheniformis after 24 hrs by agar diffusion assay. In general terms: Agar diffusion results depend on both activity and mobility in agar.
Test [6] deals with Streptococcus pneumoniae. As to the kind of experiment: Antibacterial activity against Streptococcus pneumoniae after 24 hrs by agar diffusion assay.
In test [7] the test system is Staphylococcus aureus. The experiment in a line: Antibacterial activity against Staphylococcus aureus after 24 hrs by agar diffusion assay.
In test [8] the test system is Pseudomonas aeruginosa. As to the kind of experiment: Antibacterial activity against Pseudomonas aeruginosa after 24 hrs by agar diffusion assay.
The subject of test [9] is Escherichia coli. As to the kind of experiment: Antibacterial activity against Escherichia coli after 24 hrs by agar diffusion assay.
Test [10] relates to Klebsiella pneumoniae. The experiment in a line: Antibacterial activity against Klebsiella pneumoniae after 24 hrs by agar diffusion assay.
For test [11], the system named is Escherichia coli. As to the kind of experiment: Antibacterial activity against Escherichia coli after 24 to 48 hrs.
For test [12], the system named is Klebsiella pneumoniae. As to the kind of experiment: Antibacterial activity against Klebsiella pneumoniae after 24 to 48 hrs.
Test [13] relates to Pseudomonas aeruginosa. The experiment in a line: Antibacterial activity against Pseudomonas aeruginosa after 24 to 48 hrs.
Test [14] concerns Bacillus licheniformis. The experiment in a line: Antibacterial activity against Bacillus licheniformis after 24 to 48 hrs.
In test [15] the test system is Streptococcus pneumoniae. As to the kind of experiment: Antibacterial activity against Streptococcus pneumoniae after 24 to 48 hrs.
The subject of test [16] is Staphylococcus aureus. The experiment in a line: Antibacterial activity against Staphylococcus aureus after 24 to 48 hrs.

Structures are written as SMILES. Values after ≈ are worked out from the molar mass of the structure shown.

What is called GI50 is the concentration at which growth is held to half of that of the control. A lower GI50 goes with more potent growth inhibition. A word on the MIC: it is the smallest concentration in the dilution series that meets the test's criterion for growth inhibition.

In the case of `CCc1nc2nc(C(F)(F)F)ccc2c(=O)n1Cc1cn(CCC(F)(F)C(F)(F)C(F)(F)C(F)(F)C(F)(F)C(F)(F)F)nn1`, the 50% growth inhibitory concentration (GI50) was 2830 nM in [1], 730 nM in test [2], 30 nM in test [3] and 930 nM in test [4].

As to `O=c1c2ccc(C(F)(F)F)nc2nc(-c2ccccc2)n1Cc1cn(-c2ccc([N+](=O)[O-])cc2)nn1`, the GI50 in test [1] came out at 1240 nM; in test [2], 2550 nM; in test [3], 770 nM; in test [4] it was 860 nM.

`CCCCCCCCCCn1cc(COc2nc(-c3ccccc3)nc3nc(C(F)(F)F)ccc23)nn1`: the GI50 in test [1] was found to be 1050 nM; in [2], 490 nM; in test [3], 2310 nM; in test [4], 1040 nM. The results for the “inhibition zone (IZ)” value in [5], in test [6] and in test [7] were 8 mm, 16 mm and 10 mm, respectively.

In the case of `CCc1nc2nc(C(F)(F)F)ccc2c(=O)n1Cc1cn(CC(=O)Nc2ccccc2)nn1`, the GI50 in [1] came to 1700 nM; in [2] it was 320 nM; in test [3], 5260 nM; in test [4], 860 nM.

As to `CCCCCCCCCCn1cc(Cn2c(-c3ccco3)nc3nc(C(F)(F)F)ccc3c2=O)nn1`, the GI50 in test [1] came out at 1100 nM; in [2] it was 3180 nM; in test [3], 200 nM; in [4], 870 nM.

For `FC(F)(F)c1ccc2c(OCc3cn(CCC(F)(F)C(F)(F)C(F)(F)C(F)(F)C(F)(F)C(F)(F)F)nn3)nc(-c3ccccc3)nc2n1`, the GI50 in test [1] was determined as 520 nM; in [2] it was 2990 nM; in [3] it was 1910 nM; in test [4] it was 1200 nM.

For the compound `O=c1c2ccc(C(F)(F)F)nc2ncn1Cc1cn(-c2ccc([N+](=O)[O-])cc2)nn1`, the GI50 stood at 140 nM in [1], 1890 nM in test [2], 300 nM in [3] and 890 nM in test [4].

As to `O=C(Cn1cc(COc2nc(-c3ccccc3)nc3nc(C(F)(F)F)ccc23)nn1)Nc1ccccc1`, the GI50 in test [1] came out at 650 nM; in [2], 4500 nM; in [3], 140 nM; in test [4] it was 890 nM.

Consider `O=c1c2ccc(C(F)(F)F)nc2ncn1Cc1cc(-c2ccc(Br)cc2)no1`, for which the GI50 turned out to be 710 nM in [1], 1160 nM in test [2], 3810 nM in [3] and 1240 nM in [4].

Consider `CCCCCCCCn1cc(Cn2c(CC)nc3nc(C(F)(F)F)ccc3c2=O)nn1`, for which the “inhibition zone (IZ)” value was determined as 7 mm in [8]; 7 mm in test [9]; 7 mm in test [10]; 8 mm in [5]; 6 mm in test [6]; 9 mm in test [7]. Moreover, the GI50 is 1340 nM in [1], 3280 nM in test [2], 2870 nM in [3] and 1270 nM in test [4].

With `O=c1c2ccc(C(F)(F)F)nc2ncn1Cc1cc(-c2ccc(Cl)cc2)no1`, the GI50 in [1] worked out at 870 nM; in test [2] it was 7080 nM; in test [3], 1090 nM; in test [4], 840 nM.

On to `O=c1c2ccc(C(F)(F)F)nc2nc(-c2ccccc2)n1Cc1cn(CCC(F)(F)C(F)(F)C(F)(F)C(F)(F)C(F)(F)C(F)(F)F)nn1`, for which the GI50 in test [1] was found to be 9890 nM; in test [2], 2950 nM; in [3], 520 nM; in test [4] it was 870 nM.

For the compound `O=c1c2ccc(C(F)(F)F)nc2nc(-c2ccccc2)n1Cc1cc(-c2cccc3ccccc23)no1`, the GI50 in [1] amounted to 1010 nM; in test [2] it was 140 nM; in test [3], 3140 nM; in test [4] it was 910 nM.

As to `COc1cc(-n2cc(COc3nc(-c4ccccc4)nc4nc(C(F)(F)F)ccc34)nn2)cc(OC)c1OC`, the GI50 came to 240 nM in [1], 820 nM in test [2], 4050 nM in test [3] and 890 nM in test [4].

`CCCCCCCCCCn1cc(Cn2c(CC)nc3nc(C(F)(F)F)ccc3c2=O)nn1`: the “inhibition zone (IZ)” value is 16 mm in test [8]; 25 mm in test [9]; 19 mm in [10]; 21 mm in test [5]; 28 mm in test [6]; 15 mm in test [7]. The GI50 in test [1] was found to be 2210 nM; in test [2] it was 20 nM; in test [3] it was 860 nM; in test [4], 810 nM. Moreover, the MIC stood at 25 µg/mL (≈ 53.8 µM) in [11]; 25 µg/mL (≈ 53.8 µM) in test [12]; 12.5 µg/mL (≈ 26.9 µM) in [13]; 12.5 µg/mL (≈ 26.9 µM) in [14]; 12.5 µg/mL (≈ 26.9 µM) in [15]; 12.5 µg/mL (≈ 26.9 µM) in test [16].

Consider `CCCCCCCCn1cc(COc2nc(-c3ccccc3)nc3nc(C(F)(F)F)ccc23)nn1`, for which the GI50 in test [1] is 570 nM; in test [2], 2660 nM; in test [3] it was 5330 nM; in test [4], 950 nM. Besides, the “inhibition zone (IZ)” value in test [9] was 8 mm; in test [5] it was 21 mm; in test [6], 26 mm; in test [7] it was 22 mm. Also, the results for the MIC in test [14], in test [15] and in test [16] were 25 µg/mL (≈ 51.6 µM), 12.5 µg/mL (≈ 25.8 µM) and 12.5 µg/mL (≈ 25.8 µM), respectively.

Regarding `O=C(O)c1cn(C2CC2)c2cc(N3CCNCC3)c(F)cc2c1=O` [CIPROFLOXACIN], the “inhibition zone (IZ)” value is reported as 25 mm in test [8]; 22 mm in [10]; 24 mm in test [5]; 23 mm in test [6]; 25 mm in test [7]. Further, the MIC in [11], in [12], in test [14], in test [15] and in [16] was 12.5 µg/mL (≈ 37.7 µM) in each case.

Consider `COC(=O)Nc1nc2cc(C(=O)c3cccs3)ccc2[nH]1` [NOCODAZOLE], for which the 50% growth inhibitory concentration (GI50) in test [1] is 42 nM; in test [2] it was 29 nM; in [3] it was 80 nM; in [4], 63 nM.

Consider `CO[C@H]1/C=C/O[C@@]2(C)Oc3c(C)c(O)c4c(O)c(c(/C=N/N5CCN(C)CC5)c(O)c4c3C2=O)NC(=O)/C(C)=C\C=C\[C@H](C)[C@H](O)[C@@H](C)[C@@H](O)[C@@H](C)[C@H](OC(C)=O)[C@@H]1C` [RIFAMPIN], for which the “inhibition zone (IZ)” value in [8] came to 29 mm; in test [9] it was 27 mm; in test [10] it was 27 mm; in [5], 24 mm; in test [6], 25 mm; in test [7] it was 25 mm.
